US5278158A, “Oxazinobenzazole compounds” (Yamanouchi Pharmaceutical Co., Ltd., priority 1991, dated 1994)

Key:
[1] = tested on: 3,4-Diaminopyridine Induced Rhythmic Contractions; assay: Effects on 3,4-Diaminopyridine Induced Rhythmic Contractions (isolated coronary artery rings); parameters: species or system Mongrel dogs; details: Canis lupus familiaris, isolated dog coronary artery rings, 10 mM 3,4-diaminopyridine; for IC50: read-out: IC50 (inhibitory effect on the frequency of the rhythmic contractions); for IC100: read-out: IC100 (inhibitory effect on the frequency of the rhythmic contractions)
Method: (1) Effects on 3,4-Diaminopyridine Induced Rhythmic Contractions
The experiment was carried out according to the method of Uchida, Sugimoto, et al. (Myakkangaku, 24, 133-143, 1984). Mongrel dogs of either sex were anesthetized with intravenous administration of 30 mg/Kg pentobarbital and were sacrificed by bleeding and then, the heart was excised from each animal. In the Krebs-Henseleit solution, the left circumflex branch or the anterior descending branch was isolated and cut into rings about 2 mm in width. The ring segments were fixed to a stainless-steal hook, and suspended in 37° C. Krebs-Henseleit solution aerated with a mixed gas (95% O2 and 5% CO2) under a tension load of 1.0 g, and isometric contractions were recorded. After the specimen was stabilized for 30 minutes, and rhythmic contractions were induced by treatment with 10 mM 3,4-diamiopyridine. After the amplitude and frequency of rhythmic contractions became substantially steady, a test compound was cumulatively added to the nutritious solution, and the concentration-response curves for the amplitude and frequency of the contractions were constructed and efficacy was evaluated.
[…] (the concentrations required to inhibit the frequency of the rhythmic contractions) of the compounds of this invention are between 0.1 and 10 μM.

blood pressure [2] = assay: Effects on the Cardiovascular Systems (anesthetized dogs, i.v.); type: in vivo, Mongrel dogs; details: 10 μg/kg i.v.
Method: (2) Effects on the Cardiovascular Systems
Mongrel dogs of either sex were anesthetized with intravenous administration of 30 mg/Kg pentobarbital, and after tracheal intubation, the experiments were performed under artificial respiration. After thoracotomy, heart rate, blood pressure, left ventricle pressure, max. dLVP/dt, pulmonary artery pressure, central venous pressure, cardiac output and the coronary artery blood flow were measured. The effects of test compound on these parameters were evaluated by administering it through the cannula indwelt in the femoral vein. The present compounds are effective for lowering blood pressure at a dose of 1 to 1000 μg/kg i.v.

coronary artery = assay: Coronary Vasodilating Effect (anesthetized dogs, intracoronary); type: in vivo, Mongrel dogs; details: i.a.; action of 300 μg papaverine set as 100%
Method: (3) Coronary Vasodilating Effect
Mongrel dogs of either sex were anesthetized with intravenous administration of 30 mg/Kg pentobarbital.
After tracheal intubation, the experiments was conducted under artificial respiration. After thoracotomy, the left circumflex branch was perfused with the autologous blood derived from the carotid artery at a constant pressure through an extracorporeal circuit. Coronary blood flow was measured with an electromagnetic flow probe installed in the extra-corporeal circuit. The test compound was administered directly into the coronary artery through the extra-corporeal circuit and the coronary vasodilating effects were evaluated.
The dilating action was expressed as percentage with the action of 300 μg papaverine being set as 100%, and the dose required to produce a blood flow increase of 100% (ED100pap) was calculated.

blood pressure [3] = assay: Hypotensive Effect in spontaneously hypertensive rats (oral); type: in vivo, Spontaneously hypertensive rats (SHR) of Okamoto-Aoki strain; details: 300 μg/Kg p.o.; conscious SHR
Method: Spontaneously hypertensive rats (SHR) of Okamoto-Aoki strain were anesthetized with pentobarbital, 60 mg/kg i.p. Then, a cannula for blood pressure measurement was indwelt in the left common carotid artery and the other end of the cannula was led out extracorporeally from the posterior neck. After a stabilization period of 4-5 days, blood pressure and heart rate were measured under freely moving condition.
The test compound was suspended in 0.5% methylcellulose solution and the suspension was orally administered in a volume of 5 ml/Kg and the efficacy was evaluated.

Compound	IC50 [1]	IC100 [1]	MBP (mean blood pressure-lowering effect) (blood pressure [2])	ED100PAP (dose required to produce a blood flow increase of 100%) (coronary artery)	MBP (blood pressure [3])
CC1(C)CN(c2cccc[n+]2[O-])c2cc3no[n+]([O-])c3cc2O1 [Example 4, 7,8-Dihydro-6,6-dimethyl-8-(2'-pyridyl)-6H-[1,4]oxazino[2,3-f][2,1,3]benzoxadiazole 3,1'-dioxide]	170 nM	1.23 µM	-10 Δ%		
CC1(C)CN(c2cccc[n+]2[O-])c2cc3nonc3cc2O1 [Example 2, 2-(7,8-dihydro-6,6-dimethyl-6H-[1,4]oxazino[2,3-f][2,1,3]benzoxadiazol-8-yl)pyridine N-oxide]	150 nM	0.66 µM	-33 Δ%	3.5 µg	-45 Δ%
